The compounds below were run on HCV 1b genotype (assay: HCV replicon assay (HCV-neo replicon cells, wild-type)). Details: HCV 1b genotype replicon; class symbol; read-out: EC50 Range against HCV 1b.
Assay type: cell-based, Hepatitis C virus
Experimental: An HCV Replicon assay was utilized in the present disclosure, and was prepared, conducted and validated as described in commonly owned PCT/US2006/022197 and in O'Boyle et al., Antimicrob. Agents Chemother, 49(4):1346-1353 (April 2005). Assay methods incorporating luciferase reporters have also been used as described (Apath.com).
HCV-neo replicon cells and replicon cells containing resistance substitutions in the NS5A region were used to test the currently described family of compounds.
The compounds were determined to have differing degrees of reduced inhibitory activity on cells containing mutations vs. the corresponding inhibitory potency against wild-type cells. Thus, the compounds of the present disclosure can be effective in inhibiting the function of the HCV NS5A protein and are understood to be as effective in combinations as previously described in application PCT/US2006/022197 and commonly owned WO 04/014852. It should be understood that the compounds of the present disclosure can inhibit multiple genotypes of HCV. […] In one embodiment, compounds of the present disclosure are inhibitory versus 1a, 1b, 2a, 2b, 3a, 4a, and 5a genotypes.
Compound `CC(C)(C)OC(=O)N1CCCC1(C)C(=O)N1CCC[C@H]1C(=O)Nc1ccc(-c2cnc(-c3ccc(NC(=O)[C@@H]4CCCN4C(=O)C4(C)CCCN4C(=O)OC(C)(C)C)cc3)o2)cc1` (stereo partly drawn) [Example D-29, di-tert-butyl 2,2′-(1,3-oxazole-2,5-diylbis(4,1-phenylenecarbamoyl(2S)-2,1-pyrrolidinediylcarbonyl))bis(2-methyl-1-pyrrolidinecarboxylate)] has an EC50 of 1000 to 10000 nM.

Same assay, conditions: Hepatitis C virus, HCV 1b genotype replicon; class symbol; read-out: EC50 Range against HCV 1b
For `CC(C)[C@H](NC(=O)OCc1ccccc1)C(=O)Nc1ccc(-c2cnc(-c3ccc(NC(=O)[C@@H](NC(=O)OCc4ccccc4)C(C)C)cc3)o2)cc1` [JG-4, dibenzyl (1,3-oxazole-2,5-diylbis(4,1-phenyleneimino((2S)-3-methyl-1-oxo-1,2-butanediyl)))biscarbamate], the EC50 was 100 to 999 nM.
Compound `CC(C)(C)OC[C@H](NC(=O)Cc1ccccc1)C(=O)Nc1ccc(-c2cnc(-c3ccc(NC(=O)[C@H](COC(C)(C)C)NC(=O)Cc4ccccc4)cc3)o2)cc1` [JG-16, (2S,2′S)-N,N′-(1,3-oxazole-2,5-diyldi-4,1-phenylene)bis(3-tert-butoxy-2-((phenylacetyl)amino)propanamide)] has an EC50 of 100 to 999 nM.
Compound `O=C(Nc1ccc(-c2cc(-c3ccc(NC(=O)[C@@H]4C=CCN4C(=O)CC4CCCC4)cc3)[nH]n2)cc1)[C@@H]1C=CCN1C(=O)CC1CCCC1` [OL-39, (2S,2′S)-N,N′-(1H-pyrazole-3,5-diyldi-4,1-phenylene)bis[1-(cyclopentylacetyl)-2,5-dihydro-1H-pyrrole-2-carboxamide]] has an EC50 of 1000 to 10000 nM.
`O=C(Nc1ccc(-c2cc(-c3ccc(NC(=O)[C@@H]4CCCN4C(=O)c4cc5ccccc5o4)cc3)[nH]n2)cc1)[C@@H]1CCCN1C(=O)c1cc2ccccc2o1` [JG-40, (2S,2′S)-N,N′-(1H-pyrazole-3,5-diyldi-4,1-phenylene)bis(1-(1-benzofuran-2-ylcarbonyl)-2-pyrrolidinecarboxamide)] was tested, and the EC50 was 100 to 999 nM.
`O=C(Nc1ccc(-c2nnc(-c3ccc(NC(=O)[C@@H]4CCCN4C(=O)c4cccc(Cl)n4)cc3)o2)cc1)[C@@H]1CCCN1C(=O)c1cccc(Cl)n1` [RK-12, (2S,2′S)-N,N′-(1,3,4-oxadiazole-2,5-diyldi-4,1-phenylene)bis(1-((6-chloro-2-pyridinyl)carbonyl)-2-pyrrolidinecarboxamide)] showed an EC50 of 1000 to 10000 nM.
For `CC(=O)N1CCC[C@H]1C(=O)Nc1ccc(-c2cnc(-c3ccc(NC(=O)[C@@H]4CCCN4C(=O)Cc4ccccc4)cc3)o2)cc1` [MS-1, (2S)-1-acetyl-N-(4-(2-(4-((((2S)-1-(phenylacetyl)-2-pyrrolidinyl)carbonyl)amino)phenyl)-1,3-oxazol-5-yl)phenyl)-2-pyrrolidinecarboxamide], the EC50 was 100 to 999 nM.
In the case of `CN(C)[C@@H](C(=O)N1CCCC1(C)C(=O)N1CCC[C@H]1C(=O)Nc1ccc(-c2cnc(-c3ccc(NC(=O)[C@@H]4CCCN4C(=O)C4(C)CCCN4C(=O)[C@@H](c4ccccc4)N(C)C)cc3)o2)cc1)c1ccccc1` (stereo partly drawn) [Example D-41, (2S,2′S)-N,N′-(1,3-oxazole-2,5-diyldi-4,1-phenylene)bis(1-((1-((2R)-2-(dimethylamino)-2-phenylacetyl)-2-methyl-2-pyrrolidinyl)carbonyl)-2-pyrrolidinecarboxamide)], the EC50 is reported as 100 to 999 nM.
Compound `CN(C)[C@@H](C(=O)N1[C@H](C(=O)N2CCC[C@H]2C(=O)Nc2ccc(-c3cnc(-c4ccc(NC(=O)[C@@H]5CCCN5C(=O)[C@@H]5C[C@@H]6C[C@@H]6N5C(=O)[C@@H](c5ccccc5)N(C)C)cc4)o3)cc2)C[C@@H]2C[C@@H]21)c1ccccc1` [Example D-40, (2S,2′S)-N,N′-(1,3-oxazole-2,5-diyldi-4,1-phenylene)bis(1-(((1S,3S,5S)-2-((2R)-2-(dimethylamino)-2-phenylacetyl)-2-azabicyclo[3.1.0]hex-3-yl)carbonyl)-2-pyrrolidinecarboxamide)] has an EC50 of 100 to 999 nM.
`Cc1nc(-c2ccc(NC(=O)[C@H](C)NC(=O)OCc3ccccc3)cc2)c(-c2ccc(NC(=O)[C@H](C)NC(=O)OCc3ccccc3)cc2)o1` [OL-4, [(2-methyl-4,5-oxazolediyl)bis[4,1-phenyleneimino[(1S)-1-methyl-2-oxo-2,1-ethanediyl]]]bis-carbamic acid, bis(phenylmethyl) ester] showed an EC50 of 100 to 999 nM.
`O=C(Nc1ccc(-c2nc[nH]c2-c2ccc(NC(=O)[C@@H]3CCCN3C(=O)OCc3ccccc3)cc2)cc1)[C@@H]1CCCN1C(=O)OCc1ccccc1` [OL-7, (2S,2′S)-2,2′-[1H-imidazole-4,5-diylbis(4,1-phenyleneiminocarbonyl)]bis-1-pyrrolidinecarboxylic acid, bis(phenylmethyl) ester] showed an EC50 of 4.57 to 99 nM.
For `COc1cc(C(=O)N[C@@H](C)C(=O)Nc2ccc(-c3nnc(-c4ccc(NC(=O)[C@H](C)NC(=O)c5cc(OC)c6ccccc6n5)cc4)o3)cc2)nc2ccccc12` [RK-22, N,N′-(1,3,4-oxadiazole-2,5-diylbis(4,1-phenyleneimino((2S)-1-oxo-1,2-propanediyl)))bis(4-methoxy-2-quinolinecarboxamide)], the EC50 was 100 to 999 nM.
In the case of `COc1cccc2c(C(=O)N3CCC[C@H]3C(=O)Nc3ccc(-c4ccc(-c5ccc(NC(=O)[C@@H]6CCCN6C(=O)[C@@H](c6ccccc6)N(C)C)cc5)o4)cc3)nc(Cl)cc12` [JG-65, (2S)-1-((3-chloro-5-methoxy-1-isoquinolinyl)carbonyl)-N-(4-(5-(4-((((2S)-1-((2R)-2-(dimethylamino)-2-phenylacetyl)-2-pyrrolidinyl)carbonyl)amino)phenyl)-2-furyl)phenyl)-2-pyrrolidinecarboxamide], the EC50 is reported as under 4.57 nM.
With `C[C@H](NC(=O)OCc1ccccc1)C(=O)Nc1ccc(-c2nc(CC(=O)O)oc2-c2ccc(NC(=O)[C@H](C)NC(=O)OCc3ccccc3)cc2)cc1` [OL-1, 4,5-bis[4-[[(2S)-1-oxo-2-[[(phenylmethoxy)carbonyl]amino]propyl]amino]phenyl]-2-oxazoleacetic acid] the EC50 was 1000 to 10000 nM.
In the case of `COc1cccc2c(C(=O)N3CCC[C@H]3C(=O)Nc3ccc(-c4cc(-c5ccc(NC(=O)[C@@H]6CCCN6C(=O)c6nc(Cl)cc7c(OC)cccc67)cc5)[nH]n4)cc3)nc(Cl)cc12` [OL-41, (2S,2′S)-N,N′-(1H-pyrazole-3,5-diyldi-4,1-phenylene)bis(1-((3-chloro-5-methoxy-1-isoquinolinyl)carbonyl)-2-pyrrolidinecarboxamide)], the EC50 is reported as 4.57 to 99 nM.

Same assay, conditions: Hepatitis C virus, HCV 1b genotype replicon; class symbols; read-out: EC50 Range against HCV 1b
`O=C(Nc1ccc(-c2cnc(-c3ccc(NC(=O)[C@@H]4C[C@@H](O)CN4C(=O)c4cccs4)cc3)o2)cc1)[C@@H]1C[C@@H](O)CN1C(=O)c1cccs1` [XY-54, (2S,4R,2′S,4′R)-N,N′-(1,3-oxazole-2,5-diyldi-4,1-phenylene)bis(4-hydroxy-1-(2-thienylcarbonyl)-2-pyrrolidinecarboxamide)] gave an EC50 of 1000 to 10000 nM.
In the case of `COc1cccc(CC(=O)N2CCC[C@H]2C(=O)Nc2ccc(-c3cnc(-c4ccc(NC(=O)[C@@H]5CCCN5C(=O)Cc5cccc(OC)c5)cc4)o3)cc2)c1` [XY-3, (2S,2′S)-N,N′-(1,3-oxazole-2,5-diyldi-4,1-phenylene)bis(1-((3-methoxyphenyl)acetyl)-2-pyrrolidinecarboxamide)], the EC50 is reported as 100 to 999 nM.
`O=C(Nc1ccc(-c2cnc(-c3ccc(NC(=O)[C@@H]4CCCN4C(=O)c4ccco4)cc3)o2)cc1)[C@@H]1CCCN1C(=O)c1ccco1` [XY-37, (2S,2′S)-N,N′-(1,3-oxazole-2,5-diyldi-4,1-phenylene)bis(1-(2-furoyl)-2-pyrrolidinecarboxamide)] was tested, and the EC50 was 100 to 999 nM.

Same assay, conditions: Hepatitis C virus, HCV 1b genotype replicon; read-out: EC50 1b
With `O=C(Nc1ccc(-c2nnc(-c3ccc(NC(=O)[C@@H]4CCCN4C(=O)c4cccc(Cl)n4)cc3)o2)cc1)[C@@H]1CCCN1C(=O)c1cccc(Cl)n1` [RK-12, (2S,2′S)-N,N′-(1,3,4-oxadiazole-2,5-diyldi-4,1-phenylene)bis(1-((6-chloro-2-pyridinyl)carbonyl)-2-pyrrolidinecarboxamide)] the EC50 was 3960 nM.
Work on `COc1cccc(CC(=O)N2CCC[C@H]2C(=O)Nc2ccc(-c3cnc(-c4ccc(NC(=O)[C@@H]5CCCN5C(=O)Cc5cccc(OC)c5)cc4)o3)cc2)c1` [XY-3, (2S,2′S)-N,N′-(1,3-oxazole-2,5-diyldi-4,1-phenylene)bis(1-((3-methoxyphenyl)acetyl)-2-pyrrolidinecarboxamide)] yielded an EC50 of 321 nM.
With `Cc1nc(-c2ccc(NC(=O)[C@H](C)NC(=O)OCc3ccccc3)cc2)c(-c2ccc(NC(=O)[C@H](C)NC(=O)OCc3ccccc3)cc2)o1` [OL-4, [(2-methyl-4,5-oxazolediyl)bis[4,1-phenyleneimino[(1S)-1-methyl-2-oxo-2,1-ethanediyl]]]bis-carbamic acid, bis(phenylmethyl) ester] the EC50 was 220 nM.
